{"source": "paper PMC5816172", "about": "(Proceedings of the National Academy of Sciences of the …, 2018)", "system": "NLRP3 inflammasome", "experiment": "NLRP3 inflammasome stimulation of J774A.1 macrophages", "assay_type": "cell-based, mouse", "conditions": "J774A.1 (Fig. S7B), ACHP alone"}
{"smiles": "N#Cc1c(C2CCNCC2)cc(-c2c(O)cccc2OCC2CC2)nc1N", "note": "[ACHP, 2-Amino-6-[2-(cyclopropylmethoxy)-6-hydroxyphenyl]-4-(4-piperidinyl)-3-pyridinecarbonitrile, reference compound]", "values": [{"measurement": "reduction of LPS/nigericin induction of IL-1β", "value": 60, "unit": "%"}]}
